Measured values: patent EP0287830A1, “Alkanoic acid alkyl esters, method for their production and the application of aqueous emulsions of these esters in vaccines” (priority 1987, dated 1988)

Columns and labels:
[1] = Tolerability of emulsions in guinea pig test model; type: in vivo, Meerschweinchen; settings: Meerschweinchentestmodell
[2] = Immunostimulatory and adjuvant effect in mouse test model; type: in vivo, Mäuse; settings: as component of an oil-in-water emulsion, Mäusetestmodell

Hexansäurehexylester [Verbindung 2]
Verträglichkeit der Emulsionen [1]: sehr gut verträglich | immunstimulatorische und adjuvante Wirkung [2]: immunstimulatorische und adjuvante Wirkung
